Measurements taken from patent US20150352108A1, “AMINO-PYRIMIDINE COMPOUNDS AS INHIBITORS OF TBK1 AND/OR IKK EPSILON” (Alzheimer's Institute of America, priority 2009, published 2015).

target: T1, IKKε (Homo sapiens, UniProt Q14164); assay: In-vitro IKKε kinase assay ([γ33]ATP filter-plate); type: biochemical; details: text bins; read-out: IC50 for inhibition of the kinase activity of IKKε
T1 construct: His-tag; made in house; host or cells: Sf9 insect cells
T1 sequence (Q14164 1-716): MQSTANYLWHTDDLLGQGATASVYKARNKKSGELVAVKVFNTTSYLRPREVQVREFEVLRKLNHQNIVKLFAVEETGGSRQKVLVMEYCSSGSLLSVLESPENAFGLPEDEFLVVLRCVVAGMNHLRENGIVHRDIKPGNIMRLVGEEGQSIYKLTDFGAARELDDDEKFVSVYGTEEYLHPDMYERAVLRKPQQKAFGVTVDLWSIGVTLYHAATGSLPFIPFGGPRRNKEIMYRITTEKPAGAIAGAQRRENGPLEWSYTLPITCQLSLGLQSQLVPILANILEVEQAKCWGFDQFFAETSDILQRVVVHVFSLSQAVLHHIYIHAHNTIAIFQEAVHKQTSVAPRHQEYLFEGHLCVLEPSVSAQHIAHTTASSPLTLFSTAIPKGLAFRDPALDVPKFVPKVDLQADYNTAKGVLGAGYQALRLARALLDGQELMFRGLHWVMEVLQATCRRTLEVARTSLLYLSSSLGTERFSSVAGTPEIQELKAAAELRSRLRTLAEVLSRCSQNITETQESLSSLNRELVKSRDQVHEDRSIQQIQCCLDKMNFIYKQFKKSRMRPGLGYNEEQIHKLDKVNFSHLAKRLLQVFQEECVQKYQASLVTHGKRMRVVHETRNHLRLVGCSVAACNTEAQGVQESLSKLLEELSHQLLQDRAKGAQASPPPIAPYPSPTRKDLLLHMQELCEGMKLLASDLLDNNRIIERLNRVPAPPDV
Description: IKKε enzyme was produced as a His-tag fusion in Sf9 cells and used at a final concentration of […]. TBK1 enzyme was produced as a His-tag fusion in Sf9 cells and used at a final concentration of 0.1 μg/ml. Kinase reactions were carried out in reaction buffer using myelin basic protein (Millipore, Ballerica, Mass.) or casein (Sigma, St. Louis, Mo.) as substrate at an ATP concentration equal to twice the Km,ATP value for each enzyme, corresponding to 32 μM ATP for IKKε and 60 μM ATP for TBK1, in the presence of 0.3 μCi [γ^33]ATP (PerkinElmer, Waltham, Mass.). Final enzyme concentrations were 0.1 or 0.015 μg/ml (IKKε) and 0.1 or 0.02 μg/ml (TBK1), representing “normal” and “sensitized” assay conditions respectively. Test compounds (or DMSO solvent as a control) were added prior to initiation of the reactions. Reactions were terminated after 30-45 minutes by adding 3% phosphoric acid. Terminated reactions were transferred to P-81 cellulose phosphate filterplates (Whatman, Inc., Piscataway, N.J.) and washed with 1% phosphoric acid on a vacuum apparatus. After air drying, scintillant (PerkinElmer, Waltham, Mass.) was added and the plates were read on a PerkinElmer TopCount NXT instrument. Counts were normalized to DMSO controls after background subtraction.

SMILES	IC50 [µM]
CN1CCN(CC(=O)N2CCC(Oc3ccc(-c4ccnc(Nc5ccc(N6CCOCC6)cc5)n4)cc3C#N)CC2)CC1 [Example 240, 2-({1-[(4-methylpiperazin-1-yl)acetyl]piperidin-4-yl}oxy)-5-(2-{[4-(morpholin-4-yl)phenyl]amino}pyrimidin-4-yl)benzonitrile]	0.05 to 0.5
COc1cc(Nc2nccc(-c3ccc(OC4CCN(C(=O)CO)C4)c(C#N)c3)n2)ccc1OCCOCCN (stereo not drawn) [Example 199, 5-[2-({4-[2-(2-aminoethoxy)ethoxy]-3-methoxyphenyl}amino)pyrimidin-4-yl]-2-{[1-(hydroxyacetyl)pyrrolidin-3-yl]oxy}benzonitrile]	0.005 to 0.05
COc1ccc(-c2ccnc(Nc3ccc(N4CCCC4C(=O)N(C)C)c(OC)c3)n2)cc1C#N (stereo not drawn) [Example 87]	0.005 to 0.05
N#Cc1cc(-c2ccnc(Nc3ccc(N4CCOCC4)cc3)n2)ccc1OC1CCN(CC(=O)N2CCOCC2)CC1 [Example 234, 2-({1-[2-(morpholin-4-yl)-2-oxoethyl]piperidin-4-yl}oxy)-5-(2-{[4-(morpholin-4-yl)phenyl]amino}pyrimidin-4-yl)benzonitrile]	0.05 to 0.5
COc1ccc(Nc2nccc(-c3ccc(OC(C)c4ccccc4)c(C#N)c3)n2)cc1OC (stereo not drawn) [Example 163]	0.05 to 0.5
N#Cc1cc(-c2ccnc(Nc3ccc(N4CCOCC4)cc3)n2)ccc1OC1CCN(C(=O)Cn2ccnc2)CC1 [Example 139, 2-{[1-(1H-imidazol-1-ylacetyl)piperidin-4-yl]oxy}-5-(2-{[4-(morpholin-4-yl)phenyl]amino}pyrimidin-4-yl)benzonitrile]	0.005 to 0.05
CC(=O)Nc1cccc(Nc2nccc(-c3cccc(C#N)c3)n2)c1 [Example 277, N-(3-{[4-(3-Cyanophenyl)pyrimidin-2-yl]amino}phenyl) acetamide]	0.05 to 0.5

The next lines start with the values.

IC50 [µM]	SMILES
0.005 to 0.05	CC(C)C(=O)Nc1ccc(-c2ccnc(Nc3ccc(CCNCCO)cc3)n2)cc1C#N [compound 455, N-(2-cyano-4-{2-[(4-{2-[(2-hydroxyethyl)amino]ethyl}phenyl)amino]pyrimidin-4-yl}phenyl)-2-methylpropanamide]
0.05 to 0.5	N#Cc1cccc(-c2ccnc(Nc3cccc(Cl)c3)n2)c1 [compound 338, 3-{2-[(3-Chlorophenyl)amino]pyrimidin-4-yl}benzonitrile]
0.005 to 0.05	CC(C)C(=O)Nc1ccc(-c2ccnc(Nc3ccc(CCO)cc3)n2)cc1C#N [compound 464, N-[2-cyano-4-(2-{[4-(2-hydroxyethyl)phenyl]amino}pyrimidin-4-yl)phenyl]-2-methylpropanamide]
0.005 to 0.05	COc1ccc(-c2ccnc(Nc3cccc(NC(=O)NCCO)c3)n2)cc1C#N [compound 301, 1-(3-{[4-(3-Cyano-4-methoxyphenyl)pyrimidin-2-yl]amino}phenyl)-3-(2-hydroxyethyl)urea]
0.05 to 0.5	COc1ccc(-c2ccnc(Nc3ccc(OC)c(OC4CCN(C)CC4)c3)n2)cc1C#N [Example 289, 2-Methoxy-5-[2-({4-methoxy-3-[(1-methylpiperidin-4-yl)oxy]phenyl}amino)pyrimidin-4-yl]benzonitrile]
0.05 to 0.5	CC(C)C(=O)Nc1ccc(-c2ccnc(Nc3ccc(CCN4CCNCC4)cc3)n2)cc1C#N [compound 451, N-{2-cyano-4-[2-({4-[2-(piperazin-1-yl)ethyl]phenyl}amino)pyrimidin-4-yl]phenyl}-2-methylpropanamide]
0.005 to 0.05	N#Cc1cc(-c2ccnc(Nc3ccc(N4CCOCC4)cc3)n2)ccc1O[C@H]1CCN(C(=O)CO)C1 [compound 623, 2-{[(3S)-1-(Hydroxyacetyl)pyrrolidin-3-yl]oxy}-5-(2-{[4-(morpholin-4-yl)phenyl]amino}pyrimidin-4-yl)benzonitrile]
0.05 to 0.5	COc1cc(NC(=O)NCCCNC(C)=O)cc(Nc2nccc(-c3ccc(OC)c(C#N)c3)n2)c1 [compound 391, N-(3-{[(3-{[4-(3-Cyano-4-methoxyphenyl)pyrimidin-2-yl]amino}-5-methoxyphenyl)carbamoyl]amino}propyl) acetamide]
